Measurements taken from PMC4303209, “A novel phosphatidylinositol 3-kinase (PI3K) inhibitor directs a potent FOXO-dependent, p53-independent cell cycle arrest phenotype characterized by the differential induction of a subset of FOXO-regulated genes” (Breast Cancer Research : BCR, 2014).

Tested on: MCF-7 breast cancer cells
Experiment: Microarray gene expression analysis (Agilent whole human genome 4 x 44K; compound vs DMSO, LIMMA log2 fold change)
Type: cell-based

Compound: Oc1cccc(-c2nc(N3CCOCC3)c3oc4ncccc4c3n2)c1 [PI-103]
- log2FC SENP2 (gene SENP2 (Gene 59343), cell cycle genes): -0.06
- SERINC3 log2FC (gene SERINC3 (10955), apoptosis genes): 0.115
- SERPINE1 log2FC (gene SERPINE1 (5054), apoptosis genes): -0.018
- log2FC (gene SESN1 (Gene 27244), cell cycle genes): -0.06
- SHF log2FC (gene SHF (90525), apoptosis genes): 0.016
- SKIL log2FC (gene SKIL (6498), apoptosis genes): 0.039
- log2FC SKIL (gene SKIL (Gene 6498), cell cycle genes): 0.04
- log2FC (gene SLBP (Gene 7884), cell cycle genes): 0.11
- SLC25A6 log2FC (gene SLC25A6 (293), apoptosis genes): -0.018
- log2FC SLC26A8 (gene SLC26A8 (Gene 116369), cell cycle genes): -0.065
- SLC40A1 log2FC (gene SLC40A1 (30061), apoptosis genes): -0.00212
- SMAD1 log2FC (gene SMAD1 (4086), apoptosis genes): -0.215
- SMNDC1 log2FC (gene SMNDC1 (10285), apoptosis genes): -0.319
- SOD1 log2FC (gene SOD1 (6647), apoptosis genes): 0.105
- SOS1 log2FC (gene SOS1 (6654), apoptosis genes): 0.010
- SOX8 log2FC (gene SOX8 (30812), apoptosis genes): -0.456
- log2FC SPO11 (gene SPO11 (Gene 23626), cell cycle genes): 0.0237
- SPTAN1 log2FC (gene SPTAN1 (6709), apoptosis genes): 0.362
- log2FC (gene SRC (Gene 6714), cell cycle genes): -0.35
- log2FC (gene STAG1 (Gene 10274), cell cycle genes): 0.32
- STK3 log2FC (gene STK3 (6788), apoptosis genes): 0.109
- SULF1 log2FC (gene SULF1 (23213), apoptosis genes): -0.171
- log2FC (gene SUPT5H (Gene 6829), cell cycle genes): 0.00774
- log2FC (gene SUV39H2 (Gene 79723), cell cycle genes): -0.56
- SYCP2 log2FC (gene SYCP2 (10388), apoptosis genes): 0.019
- log2FC SYCP2 (gene SYCP2 (Gene 10388), cell cycle genes): 0.02
- log2FC SYCP3 (gene SYCP3 (Gene 50511), cell cycle genes): -0.03
- log2FC (gene TAF2 (Gene 6873), cell cycle genes): 0.21
- log2FC TAF6 (gene TAF6 (Gene 6878), cell cycle genes): 0.22
- log2FC (gene TAOK2 (Gene 9344), cell cycle genes): -0.25
- TEK log2FC (gene TEK (7010), apoptosis genes): -0.024
- log2FC (gene TEX14 (Gene 56155), cell cycle genes): 0.17
- log2FC (gene TEX15 (Gene 56154), cell cycle genes): 0.23
- TFAP2D log2FC (gene TFAP2D (83741), apoptosis genes): 0.021
- log2FC (gene TGFA (Gene 7039), cell cycle genes): -0.53
- TGFB2 log2FC (gene TGFB2 (7042), apoptosis genes): -0.026
- log2FC TGFB2 (gene TGFB2 (Gene 7042), cell cycle genes): -0.0258
- THEM4 log2FC (gene THEM4 (117145), apoptosis genes): -0.280
- log2FC THOC5 (gene THOC5 (Gene 8563), cell cycle genes): 0.0165
- TMBIM4 log2FC (gene TMBIM4 (51643), apoptosis genes): -0.154
- log2FC (gene TMEM67 (Gene 91147), cell cycle genes): 0.17
- TMEM102 log2FC (gene TMEM102 (284114), apoptosis genes): 0.338
- TNFRSF1B log2FC (gene TNFRSF1B (7133), apoptosis genes): -0.040
- TNFRSF8 log2FC (gene TNFRSF8 (943), apoptosis genes): 0.099
- TNFRSF10C log2FC (gene TNFRSF10C (8794), apoptosis genes): 0.011
- TNFSF8 log2FC (gene TNFSF8 (944), apoptosis genes): -0.011
- TNFSF9 log2FC (gene TNFSF9 (8744), apoptosis genes): 0.192
- TNFSF10 log2FC (gene TNFSF10 (8743), apoptosis genes): 0.00148
- TNFSF12 log2FC (gene TNFSF12 (8742), apoptosis genes): 0.353
- TNFSF14 log2FC (gene TNFSF14 (8740), apoptosis genes): 0.027
- TNFSF15 log2FC (gene TNFSF15 (9966), apoptosis genes): 0.054
- TNFSF18 log2FC (gene TNFSF18 (8995), apoptosis genes): 0.071
- log2FC (gene TP73 (Gene 7161), cell cycle genes): -0.25
- log2FC (gene TPD52L1 (Gene 7164), cell cycle genes): 0.15
- TPX2 log2FC (gene TPX2 (22974), apoptosis genes): -0.00173
- TRAF2 log2FC (gene TRAF2 (7186), apoptosis genes): -0.347
- TRAF3IP2 log2FC (gene TRAF3IP2 (10758), apoptosis genes): -0.037
- log2FC TRIP13 (gene TRIP13 (Gene 9319), cell cycle genes): -0.38
- log2FC (gene TUBGCP6 (Gene 85378), cell cycle genes): -0.19
- TXNDC5 log2FC (gene TXNDC5 (81567), apoptosis genes): -0.039
- log2FC TYMS (gene TYMS (Gene 7298), cell cycle genes): -0.08
- UBD log2FC (gene UBD (10537), apoptosis genes): -0.037
- UBE2V2 log2FC (gene UBE2V2 (7336), apoptosis genes): -0.365
- UNC13B log2FC (gene UNC13B (10497), apoptosis genes): 0.046
- VDAC2 log2FC (gene VDAC2 (7417), apoptosis genes): -0.094
- VIM log2FC (gene VIM (7431), apoptosis genes): 0.122
- VIP log2FC (gene VIP (7432), apoptosis genes): -0.302
- VNN1 log2FC (gene VNN1 (8876), apoptosis genes): -0.010
- log2FC (gene VRK1 (Gene 7443), cell cycle genes): 0.16
- WNK3 log2FC (gene WNK3 (65267), apoptosis genes): -0.015
- log2FC (gene WTAP (Gene 9589), cell cycle genes): -0.47
- log2FC (gene YY1AP1 (Gene 55249), cell cycle genes): 0.31
- ZBTB16 log2FC (gene ZBTB16 (7704), apoptosis genes): -0.00549
- log2FC ZC3H12D (gene ZC3H12D (Gene 85313), cell cycle genes): -0.0743
- log2FC (gene ZC3HC1 (Gene 51530), cell cycle genes): 0.16
- ZNF205 log2FC (gene ZNF205 (7755), apoptosis genes): -0.247
- ZNF443 log2FC (gene ZNF443 (10224), apoptosis genes): -0.204
- log2FC (gene ZNF503 (Gene 84858), cell cycle genes): -0.12
- ZNF622 log2FC (gene ZNF622 (90441), apoptosis genes): -0.120
